Measured values taken from US9169509B2, “Topoisomerase 2b as a predictor of susceptibility to anthracycline-induced cardiotoxicity” (Board of Regents, The University of Texas System, priority 2013, dated 2015).

How the values were obtained:
Format in all cases: in vivo, mouse
heart sections [1] = test: Detection of apoptosis in heart sections (TUNEL assay); conditions: after acute doxorubicin treatment
Protocol: Apoptosis was detected by using TUNEL assay on heart sections. Heart harvest, sectioning, and storage were described above. Heart sections were warmed to room temperature before the apoptotic nuclei were stained by using a commercially available kit (In Situ Cell Death Detection Kit, Cat. No. 12156792910, Roche Applied Science). The entire staining procedures were performed according to the manufacturer's instructions. The nuclei were stained with DAPI (Sigma) before the slides were sealed and examined with an Olympus epifluorescence microscope (Model BX51). The apoptotic nuclei and the total nuclei per heart section were counted at 200× magnification. The apoptotic nuclei in 5 heart sections of each mouse were counted and averaged.
The cardio-protective effect of Dex against doxirubin-induced apoptosis was assessed in heart tissues. Dexrazoxane (100 mg/kg) was injected (ip) 8 hrs prior to doxorubicin (25 mg/kg) injection (ip). One group received only doxorubicin and a second group received only dexrazoxane. Hearts were harvested 16 hrs after doxorubicin treatment. The numbers of TUNEL-positive nuclei were counted in five fields in each heart section.

heart sections [2] = test: Transmission electron microscopy of heart sections; conditions: for Ultra-structural changes of mitochondria (electron microscopy): doxorubicin 25 mg/kg for 72 h
Protocol: To examine doxorubicin-induced ultra-structural damages, wildtype and mice with Top2 deletion in the cardiomyocytes were treated with doxorubicin (25 mg/kg for 72 h or 5 mg/kg once a week for 5 weeks) or drug vehicle. Heart was quickly removed. After rinse with PBS and blot dried, 10-20 pieces of tissue samples (1×2×2 mm) were taken from the myocardium of the left ventricle. Tissue samples were immediately fixed in 3% phosphate glutaraldehyde. Before sectioning, tissue samples were washed in […] sodium phosphate buffer (pH 7.3), post fixed in 1% osmium tetroxide for 1 h and dehydrated through a series of graded alcohol. Then tissue samples were infiltrated with acetone and phlybed 812 plastic resin and embedded in plastic block molds with 100% polybed 812. One micron sections (thick sections) were cut on ultra microtome and placed on glass slides and stained with toluidine blue. Ultra thin sections (80 nm) were cut from sample blocks using a RMC MTXL Ultra Microtome and mounted on 100 mesh copper grids. Grids were stained with 2% uranyl acetate and Reynold's lead stain. 9 sections were analyzed from each animal heart. Grids were examined with a JEOL 1230 electron microscope and images were capture with an AMTV 600 imaging system.

cardiomyocytes = test: Western blot of Ndufa3, Atp5a and Sdha in mitochondria isolated from cardiomyocytes; conditions: cardiomyocytes of doxorubicin-treated Top2b+/+ mice, 72 h
Protocol: Expression of Top2b was examined in the hearts of mice. After sacrifice, the heart was quickly removed and homogenized immediately in lysis buffer. After homogenization, the lysate was sonicated at 4° C. and an aliquot was removed for protein concentration measurement. The lysate was stored at −80° C. for western blot analysis. 20 μg of lysate proteins were electrophoresed and transferred to PVDF membranes. Blots were blocked with 5% non-fat dry milk, and incubated overnight at 4° C. with anti-Top2b antibody (Abcam). To detect mitochondrial proteins, the mitochondria were isolated from cardiomyocytes. The cardiomyocytes were isolated with a Langendorff perfusion system according to a published protocol3. Briefly, heart was removed and rinsed with ice-cold PBS twice before connecting to a Langendorff apparatus through the aorta. The heart was perfused first with perfusion buffer for 3 m at 37° C. (3 ml/min), then digestion buffer (enzyme-containing) buffer at 37° C. for 8-10 m. The heart was disintegrated manually and the tissue/cells were separated by using forceps. […] After incubation with HRP-conjugated secondary antibodies for 40 m at room temperature, the blots were detected with a luminol-based detection kit (ECL, GE Health Care).

Question: What does the source list for `COc1cccc2c1C(=O)c1c(O)c3c(c(O)c1C2=O)C[C@@](O)(C(=O)CO)C[C@@H]3O[C@H]1C[C@H](N)[C@H](O)[C@H](C)O1` [doxorubicin]?
Answer: Reduction of TUNEL-positive nuclei in hearts of Top2bΔ/Δ mice compared with Top2b+/+ mice (heart sections [1]): 70%; Ultrastructural changes in mitochondria (EM) (heart sections [2]; Top2b+/+ hearts, chronic doxorubicin 5 mg/kg once a week for 5 weeks): ultrastructural changes in mitochondria; Ultra-structural changes of mitochondria (electron microscopy) (heart sections [2]; Top2b+/+ mouse heart): marked mitochondria damage and vacuolization; Ultra-structural changes of mitochondria (electron microscopy) (heart sections [2]; Top2bΔ/Δ heart): minimal ultra-structural changes; Protein levels of Ndufa3, Atp5a and Sdha in mitochondria (cardiomyocytes): reduction in the protein levels
